# Source: publication PMC6941952, “A homogeneous bioluminescent immunoassay to probe cellular signaling pathway regulation” (Communications Biology, 2020)
# Where “and” joins values, the source holds several entries; their conditions need not be identical. Equal entries are not always repeated.
# Test system: total IκBα
# Experiment: NanoBiT cell-based immunoassay, total IκBα in MCF-7 cells
# Design: species or system human
# Details: for IKB with CHX Raw data / IKB with CHX Subtract reagent background / IkB Average: with CHX; for IkB Average: background subtracted
# Description: Prior to NanoBiT Cell-Based Immunoassay, 50,000 cells were seeded in 160 µl of complete growth media per well of a 96-well plate and incubated overnight. […] If necessary, the cell culture media were replaced with serum-free media after the cells were stably adherent on the plate and incubated overnight. To treat cells with activators or inhibitors, medium was changed to 30 µl of medium containing inhibitors. If activation of a specific pathway is needed, the cells were stimulated with 10 µl of medium containing activators. To lyse the cells, 10 µl of lysis buffer containing 0.1% digitonin diluted in 1X immunoassay buffer with protease and phosphatase inhibitors was added and the plates were mixed vigorously for 20 min. Then, 50 µl of an antibody mix containing two primary antibodies against the target protein and NanoBiT detecting antibodies (0.3 µl each per well), diluted in 1X immunoassay buffer was added to the lysates. The plates were incubated at 23 °C for 90 min, followed by the addition of 25 µl of Nano-Glo® reagent consisting of Nano-Glo® Luciferase Assay Substrate mixed with 1X immunoassay buffer. Luminescence was measured using a plate-reading luminometer.
# Single dose or dose response inhibitor treatments were performed prior to activation of the pathways as follows. For IκBα, the cells were treated in 30 µl medium with IKK16 or MG132 for 60 min before the addition of 10 µl of DMEM containing appropriate concentration of TNFα. To measure phosphorylation of AKT or STAT3, the corresponding NanoBiT immunoassays were developed with MCF-7 or A431 cells, respectively, according the same scheme used to develop the IκBα assay using the primary antibodies for AKT and STAT3 described in the reagents section. […] Treatment with LY294002 was performed in 30 µl medium and cells were incubated for 60 min before the addition of 1 µM Insulin. To measure STAT3 phosphorylation, A431 cells were incubated overnight in DMEM medium without serum. […] After addition of the stimulators, the cells were incubated for additional times as follows. IκBα phosphorylation and degradation analyses required both time courses and single time points as described in figures. […] The NanoBiT immunoassay protocol was followed as described above.
# All 96-well assay plates were read using a GloMax® 96 Microplate Luminometer from Promega. The instrument was set to 0.5 s integration time. In order to obtain net change of signal, the reagent background values (signal from the well containing all reagent except primary antibodies) were subtracted from the sample values. To plot and analyze the data, Microsoft Excel and GraphPad Prism® Software were used. IC50 values were determined by using a nonlinear regression fit to a sigmoidal dose response (variable slope).
compound,measurement,setting,value
C[C@@H]1C[C@@H]([C@H](O)CC2CC(=O)NC(=O)C2)C(=O)[C@@H](C)C1 [CHX],IKB with CHX Raw data,TNF 0 min,55360 and 57660 and 54100 and 60230
same,IKB with CHX Subtract reagent background,TNF 0 min,43590 and 45890 and 42330 and 48460
same,IkB Average,TNF 0 min,45068
same,IKB with CHX Raw data,TNF 5 min,58100 and 62010 and 65600 and 63320
same,IKB with CHX Subtract reagent background,TNF 5 min,46330 and 50240 and 53830 and 51550
same,IkB Average,TNF 5 min,50488
same,IKB with CHX Raw data,TNF 10 min,40310 and 45450 and 45320 and 45290
same,IKB with CHX Subtract reagent background,TNF 10 min,28540 and 33680 and 33550 and 33520
same,IkB Average,TNF 10 min,32323
same,IKB with CHX Raw data,TNF 20 min,19760 and 23860 and 25280
same,IKB with CHX Subtract reagent background,TNF 20 min,7990 and 12090 and 13510
same,IkB Average,TNF 20 min,10395
same,IKB with CHX Raw data,TNF 30 min,17770 and 17940 and 21410 and 21590
same,IKB with CHX Subtract reagent background,TNF 30 min,6000 and 6170 and 9640 and 9820
same,IkB Average,TNF 30 min,7908
same,IKB with CHX Raw data,TNF 40 min,17270 and 17950 and 20500 and 19500
same,IKB with CHX Subtract reagent background,TNF 40 min,5500 and 6180 and 8730 and 7730
same,IkB Average,TNF 40 min,7035
same,IKB with CHX Raw data,TNF 60 min,18390 and 17430 and 19370 and 18920
same,IKB with CHX Subtract reagent background,TNF 60 min,6620 and 5660 and 7600 and 7150
same,IkB Average,TNF 60 min,6758
same,IKB with CHX Raw data,TNF 80 min,19070 and 18960 and 19260 and 19280
same,IKB with CHX Subtract reagent background,TNF 80 min,7300 and 7190 and 7490 and 7510
same,IkB Average,TNF 80 min,7373
same,IKB with CHX Raw data,TNF 100 min,19610 and 18970 and 19990 and 19730
same,IKB with CHX Subtract reagent background,TNF 100 min,7840 and 7200 and 8220 and 7960
same,IkB Average,TNF 100 min,7805
same,IKB with CHX Raw data,TNF 120 min,20170 and 20220 and 20080 and 18790
same,IKB with CHX Subtract reagent background,TNF 120 min,8400 and 8450 and 8310 and 7020
same,IkB Average,TNF 120 min,8045
C[C@@H]1C[C@@H]([C@H](O)CC2CC(=O)NC(=O)C2)C(=O)[C@@H](C)C1 [cycloheximide],IκBα after the degradation phase (de novo synthesis),"MCF-7 cells, TNFα 50 ng per ml, 20 µg per ml added after 30 min",not detected
